Read-outs that look alike come from different tables or passages of the source.
Tests used:
[1] = target: T1, PI3Kα (Homo sapiens (Human), UniProt P42336); settings: read-out: PI3Kα AlphaScreen ® Ki
[2] = test system: phosphorylation of Akt at Serine 473 in U87 MG cells; settings: read-out: U87Cell IC50
[3] = test system: phosphorylation of Akt at Serine 473 in U87 MG cells; test: cells; settings: Homo sapiens, U-87 MG, 2 h, read-out: U87Cell IC50, pAkt (Ser 473), U87 MG cells, two hours with compound
[4] = target: T1, PI3Kα; test: biochemical; settings: PI3Kα AlphaScreen ® Ki

T1 sequence (P42336 whole entry): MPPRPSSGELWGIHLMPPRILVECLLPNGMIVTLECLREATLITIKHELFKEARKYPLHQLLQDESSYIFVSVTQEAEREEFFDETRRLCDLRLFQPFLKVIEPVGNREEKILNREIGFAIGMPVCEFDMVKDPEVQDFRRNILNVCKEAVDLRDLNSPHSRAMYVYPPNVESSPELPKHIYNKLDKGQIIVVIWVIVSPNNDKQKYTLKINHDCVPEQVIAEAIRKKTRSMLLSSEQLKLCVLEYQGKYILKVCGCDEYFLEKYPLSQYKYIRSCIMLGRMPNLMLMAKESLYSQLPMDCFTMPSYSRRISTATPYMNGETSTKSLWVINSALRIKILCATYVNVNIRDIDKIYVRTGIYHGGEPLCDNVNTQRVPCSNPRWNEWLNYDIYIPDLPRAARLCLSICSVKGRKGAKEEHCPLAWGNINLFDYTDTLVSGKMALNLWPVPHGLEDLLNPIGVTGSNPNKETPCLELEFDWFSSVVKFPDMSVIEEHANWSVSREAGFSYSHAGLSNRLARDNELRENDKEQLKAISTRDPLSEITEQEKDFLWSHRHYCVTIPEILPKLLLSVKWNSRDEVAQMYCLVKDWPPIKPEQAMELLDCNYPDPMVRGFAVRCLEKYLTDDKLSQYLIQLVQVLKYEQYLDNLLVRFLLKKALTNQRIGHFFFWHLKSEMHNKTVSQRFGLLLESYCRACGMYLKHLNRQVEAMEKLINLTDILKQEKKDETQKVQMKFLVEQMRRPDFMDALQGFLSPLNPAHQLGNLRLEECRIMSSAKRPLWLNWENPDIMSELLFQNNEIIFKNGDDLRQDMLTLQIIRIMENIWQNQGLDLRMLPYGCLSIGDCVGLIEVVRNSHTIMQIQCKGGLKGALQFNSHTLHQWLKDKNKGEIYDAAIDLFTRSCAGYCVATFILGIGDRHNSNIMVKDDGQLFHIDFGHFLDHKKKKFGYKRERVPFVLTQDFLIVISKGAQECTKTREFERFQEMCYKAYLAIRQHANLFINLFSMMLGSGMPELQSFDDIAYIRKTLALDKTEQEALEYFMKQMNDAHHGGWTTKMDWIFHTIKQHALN
T1 sequence (P27986 whole entry partner): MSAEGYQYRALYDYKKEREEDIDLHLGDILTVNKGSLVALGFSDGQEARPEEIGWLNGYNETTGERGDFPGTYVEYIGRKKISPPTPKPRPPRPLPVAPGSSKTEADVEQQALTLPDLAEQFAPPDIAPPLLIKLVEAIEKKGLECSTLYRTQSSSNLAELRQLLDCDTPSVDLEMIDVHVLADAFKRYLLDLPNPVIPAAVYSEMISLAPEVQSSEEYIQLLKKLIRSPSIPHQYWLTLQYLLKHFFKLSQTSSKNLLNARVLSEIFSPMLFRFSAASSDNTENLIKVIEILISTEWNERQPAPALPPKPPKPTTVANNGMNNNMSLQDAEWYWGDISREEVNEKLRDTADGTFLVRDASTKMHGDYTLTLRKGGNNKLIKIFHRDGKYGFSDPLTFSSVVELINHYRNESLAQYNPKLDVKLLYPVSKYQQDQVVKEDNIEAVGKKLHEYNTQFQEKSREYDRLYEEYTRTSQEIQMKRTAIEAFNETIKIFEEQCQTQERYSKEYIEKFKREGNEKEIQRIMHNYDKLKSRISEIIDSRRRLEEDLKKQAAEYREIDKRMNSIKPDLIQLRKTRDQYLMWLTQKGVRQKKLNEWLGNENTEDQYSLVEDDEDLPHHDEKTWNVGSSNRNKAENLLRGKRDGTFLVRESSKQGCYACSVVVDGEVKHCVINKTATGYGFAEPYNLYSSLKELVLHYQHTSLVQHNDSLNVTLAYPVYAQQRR

IC50 [3] | Ki [4] | IC50 ([2]; pAkt (Ser 473), U87 MG cells, two hours with compound) | Molecule | Ki [1] | IC50 [2]
 |  |  | 4-((5-(4-Amino-6-Methyl-1,3,5-Triazin-2-yl)-6-(5-Fluoro-6-Methoxypyridin-3-Ylaamino)Pyridin-3-yl)Methyl)-N-Methyl-N-(2,2,2-Trifluoroethyl)Piperazine-1-Carboxamide [Example 358] | 24 nM | 121 nM
90 nM | 45 nM |  | COc1ccc(Nc2ncc(CN3CCN(C(=O)N(C)C4CC4)CC3)cc2-c2nc(C)nc(N)n2)cn1 [Example 359, 4-((5-(4-Amino-6-Methyl-1,3,5-Triazin-2-yl)-6-(6-Methoxypyridin-3-Ylamino)Pyridin-3-yl)Methyl)-N-Cyclopropyl-N-Methylpiperazine-1-Carboxamide] |  | 
147 nM | 12 nM |  | COc1ccc(Nc2ncc([C@@H](O)C(C)(C)C)cc2-c2nc(C)nc3c2ncn3C2CCCCO2)cn1 (stereo partly drawn) [Example 132, (1S)-1-(6-(6-Methoxypyridin-3-Ylamino)-5-(2-Methyl-9-(Tetrahydro-2H-Pyran-2-yl)-9H-Purin-6-yl)Pyridin-3-yl)-2,2-Dimethylpropan-1-ol] |  | 
278 nM | 31 nM |  | COc1ccc(Nc2ncc([C@H](O)C(C)(C)C)cc2-c2nc(C)nc3c2ncn3C2CCCCO2)cn1 (stereo partly drawn) [Example 133, (1R)-1-(6-(6-Methoxypyridin-3-Ylamino)-5-(2-Methyl-9-(Tetrahydro-2H-Pyran-2-yl)-9H-Purin-6-yl)Pyridin-3-yl)-2,2-Dimethylpropan-1-ol] |  | 
 |  | 89 nM | COc1ccc(Nc2ncc([C@@H](O)C(F)(F)F)cc2-c2nc(C)nc(N)n2)cn1.COc1ccc(Nc2ncc([C@H](O)C(F)(F)F)cc2-c2nc(C)nc(N)n2)cn1 (racemic) [Example 269, (R,S)-1-(5-(4-Amino-6-Methyl-1,3,5-Triazin-2-yl)-6-(6-Methoxypyridin-3-Ylamino)Pyridin-3-yl)-2,2,2-Trifluoroethanol] | 33 nM | 
